These results are taken from US9682965B2, “Fumagillol heterocyclic compounds and methods of making and using same” (Zafgen, Inc., priority 2015, dated 2017).

Structures can show the parent of a compound that is named as a salt.

The test system of the assay is Diet Induced Obese (DIO) C57BL/6 mice. Put plainly: 10 day DIO mouse model (body weight, food intake, hematology, blood chemistry). It is filed as in vivo. The conditions noted are these: 240 h; DIO mouse, 0.3 mpk sc, once a day for 10 days; read-out: DIO Mouse 10-day weight loss vs vehicle. The source says: The objective of this study design was to investigate the efficacy of disclosed compounds in a 10 day DIO mouse model. Effects on body weight, food intake, hematology and blood chemistry were the primary readouts of this study design. […] Mice were fed Research Diets D12492 (60% Kcal fat, 20% Kcal carbohydrate and 20% protein) and provided water ad libitum. DIO mice were received and housed in the facility for approximately two weeks prior to the start of test article administration. On Day −4 or −3, mice were randomized into study groups based on body weight and body weights were continued to be recorded daily for the duration of the study. Daily food intake was assessed starting on Study Day −2 by weighing of the food with hopper together to avoid loss of food in transfer.
Compounds were formulated into a 100% DMSO stock (at 9 mg/mL) prior to the start, and further diluted into the target working concentration using the vehicle of 10% DMSO in water. Prior to test article administration, starting on Day −3 a dosing acclimation occured with all animals receiving a subcutaneous injection of vehicle (10% DMSO) only for 3 days. Starting on Day 1, test compounds or vehicle were administered based on individual body weight, subcutaneously, once a day for 10 days. All mice were sacrificed on Day 11, 24 hours following the final dosing on Day 10. After sacrifice, whole blood was collected and analyzed for hematology and blood chemistry parameters.
Compounds were tested vs. vehicle at various doses (1.0, 0.5, 0.3, 0.1, 0.03 mpk sc (mg per kg animal weight delivered subcutaneously), and the results are shown in Table 2 below.
Consider `CO[C@@H]1[C@H](OC(=O)N2CC(CCN3CCCC3)C2)CC[C@]2(CO2)[C@H]1[C@@]1(C)O[C@@H]1CC=C(C)C` [Example 3, (3R,4S,5S,6R)-5-methoxy-4-((2R,3R)-2-methyl-3-(3-methylbut-2-enyl)oxiran-2-yl)-1-oxaspiro[2.5]octan-6-yl 3-(2-(pyrrolidin-1-yl)ethyl)azetidine-1-carboxylate formate], for which the inhibition in vivo at 0.3 mg/kg was determined as 5.9%. As for `CO[C@@H]1[C@H](OC(=O)N2CC(CCN3CCS(=O)(=O)CC3)C2)CC[C@]2(CO2)[C@H]1[C@@]1(C)O[C@@H]1CC=C(C)C` [Example 10, (3R,4S,5S,6R)-5-methoxy-4-((2R,3R)-2-methyl-3-(3-methylbut-2-enyl)oxiran-2-yl)-1-oxaspiro[2.5]octan-6-yl 3-(2-thiomorpholinoethyl)azetidine 2,2-dioxide-1-carboxylate], the figure is 1.8%; as for `CO[C@@H]1[C@H](OC(=O)N2CC(CCN3CCN(C)C(=O)C3)C2)CC[C@]2(CO2)[C@H]1[C@@]1(C)O[C@@H]1CC=C(C)C` [Example 11, (3R,4S,5S,6R)-5-methoxy-4-((2R,3R)-2-methyl-3-(3-methylbut-2-enyl)oxiran-2-yl)-1-oxaspiro[2.5]octan-6-yl 3-(2-(4-methyl-3-oxopiperazin-1-yl)ethyl)azetidine-1-carboxylate formate], 2%; as for `CO[C@@H]1[C@H](OC(=O)N2CC(CCN3CCNC(=O)C3)C2)CC[C@]2(CO2)[C@H]1[C@@]1(C)O[C@@H]1CC=C(C)C` [Example 12, (3R,4S,5S,6R)-5-methoxy-4-((2R,3R)-2-methyl-3-(3-methylbut-2-enyl)oxiran-2-yl)-1-oxaspiro[2.5]octan-6-yl 3-(2-(3-oxopiperazin-1-yl)ethyl)azetidine-1-carboxylate], 1.1%. For `CO[C@@H]1[C@H](OC(=O)N2CC(CCN3CCC(F)(F)CC3)C2)CC[C@]2(CO2)[C@H]1[C@@]1(C)O[C@@H]1CC=C(C)C` [Example 13, (3R,4S,5S,6R)-5-methoxy-4-((2R,3R)-2-methyl-3-(3-methylbut-2-enyl)oxiran-2-yl)-1-oxaspiro[2.5]octan-6-yl 3-(2-(4,4-difluoropiperidin-1-yl)ethyl)azetidine-1-carboxylate], the inhibition in vivo at 0.3 mg/kg was determined as 18.2%. For `CO[C@@H]1[C@H](OC(=O)N2CC(CCN3CC(C)(C#N)C3)C2)CC[C@]2(CO2)[C@H]1[C@@]1(C)O[C@@H]1CC=C(C)C` [Example 14, (3R,4S,5S,6R)-5-methoxy-4-((2R,3R)-2-methyl-3-(3-methylbut-2-enyl)oxiran-2-yl)-1-oxaspiro[2.5]octan-6-yl 3-(2-(3-cyano-3-methylazetidin-1-yl)ethyl)azetidine-1-carboxylate], the inhibition in vivo at 0.3 mg/kg was found to be 12.5%.

`CO[C@@H]1[C@H](OC(=O)N2CC(CCN3CCN(S(C)(=O)=O)CC3)C2)CC[C@]2(CO2)[C@H]1[C@@]1(C)O[C@@H]1CC=C(C)C` [Example 15, (3R,4S,5S,6R)-5-methoxy-4-((2R,3R)-2-methyl-3-(3-methylbut-2-enyl)oxiran-2-yl)-1-oxaspiro[2.5]octan-6-yl 3-(2-(4-(methylsulfonyl)piperazin-1-yl)ethyl)azetidine-1-carboxylate]: the inhibition in vivo at 0.3 mg/kg came to 0.1%.

With `CO[C@@H]1[C@H](OC(=O)N2CC(CCn3ccnc3)C2)CC[C@]2(CO2)[C@H]1[C@@]1(C)O[C@@H]1CC=C(C)C` [Example 18, (3R,4S,5S,6R)-5-methoxy-4-((2R,3R)-2-methyl-3-(3-methylbut-2-enyl)oxiran-2-yl)-1-oxaspiro[2.5]octan-6-yl 3-(2-(1H-imidazol-1-yl)ethyl)azetidine-1-carboxylate], the inhibition in vivo at 0.3 mg/kg was determined as 3%. In the case of `CO[C@@H]1[C@H](OC(=O)N2CC(CCN3CC(C(=O)N(C)C)C3)C2)CC[C@]2(CO2)[C@H]1[C@@]1(C)O[C@@H]1CC=C(C)C` [Example 19, (3R,4S,5S,6R)-5-methoxy-4-((2R,3R)-2-methyl-3-(3-methylbut-2-enyl)oxiran-2-yl)-1-oxaspiro[2.5]octan-6-yl 3-(2-(3-(dimethylcarbamoyl)azetidin-1-yl)ethyl)azetidine-1-carboxylate], the inhibition in vivo at 0.3 mg/kg amounted to 6.7%. Then `CO[C@@H]1[C@H](OC(=O)N2CC(CCN3CC(C)(C(=O)N(C)C)C3)C2)CC[C@]2(CO2)[C@H]1[C@@]1(C)O[C@@H]1CC=C(C)C` [Example 20, (3R,4S,5S,6R)-5-methoxy-4-((2R,3R)-2-methyl-3-(3-methylbut-2-enyl)oxiran-2-yl)-1-oxaspiro[2.5]octan-6-yl 3-(2-(3-(dimethylcarbamoyl)-3-methylazetidin-1-yl)ethyl)azetidine-1-carboxylate], with 2.1%. As to `CO[C@H]1CCN(CCC2CN(C(=O)O[C@@H]3CC[C@]4(CO4)[C@@H]([C@@]4(C)O[C@@H]4CC=C(C)C)[C@@H]3OC)C2)C1` [Example 25, (3R,4S,5S,6R)-5-methoxy-4-((2R,3R)-2-methyl-3-(3-methylbut-2-enyl)oxiran-2-yl)-1-oxaspiro[2.5]octan-6-yl 3-(2-((S)-3-methoxypyrrolidin-1-yl)ethyl)azetidine-1-carboxylate], the inhibition in vivo at 0.3 mg/kg came out at 4.8%. `CO[C@@H]1CCN(CCC2CN(C(=O)O[C@@H]3CC[C@]4(CO4)[C@@H]([C@@]4(C)O[C@@H]4CC=C(C)C)[C@@H]3OC)C2)C1` [Example 26, (3R,4S,5S,6R)-5-methoxy-4-((2R,3R)-2-methyl-3-(3-methylbut-2-enyl)oxiran-2-yl)-1-oxaspiro[2.5]octan-6-yl 3-(2-((R)-3-methoxypyrrolidin-1-yl)ethyl)azetidine-1-carboxylate]: the inhibition in vivo at 0.3 mg/kg turned out to be 4.1%. With `CO[C@@H]1[C@H](OC(=O)N2CC(CCN3CC[C@@H](F)C3)C2)CC[C@]2(CO2)[C@H]1[C@@]1(C)O[C@@H]1CC=C(C)C` [Example 27, (3R,4S,5S,6R)-5-methoxy-4-((2R,3R)-2-methyl-3-(3-methylbut-2-enyl)oxiran-2-yl)-1-oxaspiro[2.5]octan-6-yl 3-(2-((R)-3-fluoropyrrolidin-1-yl)ethyl)azetidine-1-carboxylate], the inhibition in vivo at 0.3 mg/kg amounted to 13.3%.

`CO[C@@H]1[C@H](OC(=O)N2CC(CCN3CC[C@H](F)C3)C2)CC[C@]2(CO2)[C@H]1[C@@]1(C)O[C@@H]1CC=C(C)C` [Example 28, (3R,4S,5S,6R)-5-methoxy-4-((2R,3R)-2-methyl-3-(3-methylbut-2-enyl)oxiran-2-yl)-1-oxaspiro[2.5]octan-6-yl 3-(2-((S)-3-fluoropyrrolidin-1-yl)ethyl)azetidine-1-carboxylate]: the inhibition in vivo at 0.3 mg/kg is 12.7%. For `CO[C@@H]1[C@H](OC(=O)N2CC(CCN3CCC(C)(C#N)CC3)C2)CC[C@]2(CO2)[C@H]1[C@@]1(C)O[C@@H]1CC=C(C)C` [Example 29, (3R,4S,5S,6R)-5-methoxy-4-((2R,3R)-2-methyl-3-(3-methylbut-2-enyl)oxiran-2-yl)-1-oxaspiro[2.5]octan-6-yl 3-(2-(4-cyano-4-methylpiperidin-1-yl)ethyl)azetidine-1-carboxylate], the inhibition in vivo at 0.3 mg/kg was 10.7%. As for `CO[C@@H]1[C@H](OC(=O)N2CC(CCN3CCC(F)CC3)C2)CC[C@]2(CO2)[C@H]1[C@@]1(C)O[C@@H]1CC=C(C)C` [Example 30, (3R,4S,5S,6R)-5-methoxy-4-((2R,3R)-2-methyl-3-(3-methylbut-2-enyl)oxiran-2-yl)-1-oxaspiro[2.5]octan-6-yl 3-(2-(4-fluoropiperidin-1-yl)ethyl)azetidine-1-carboxylate], the inhibition in vivo at 0.3 mg/kg came out at 9.1%. Consider `CO[C@@H]1[C@H](OC(=O)N2CC(CCN3[C@@H]4CC[C@H]3COC4)C2)CC[C@]2(CO2)[C@H]1[C@@]1(C)O[C@@H]1CC=C(C)C` [Example 31, (3R,4S,5S,6R)-5-methoxy-4-((2R,3R)-2-methyl-3-(3-methylbut-2-enyl)oxiran-2-yl)-1-oxaspiro[2.5]octan-6-yl 3-(2-((1R,5S)-3-oxa-8-azabicyclo[3.2.1]octan-8-yl)ethyl)azetidine-1-carboxylate], for which the inhibition in vivo at 0.3 mg/kg is 4.2%. In the case of `CO[C@@H]1[C@H](OC(=O)N2CC(CCN3C4CCC3CC4)C2)CC[C@]2(CO2)[C@H]1[C@@]1(C)O[C@@H]1CC=C(C)C` [Example 32, (3R,4S,5S,6R)-5-methoxy-4-((2R,3R)-2-methyl-3-(3-methylbut-2-enyl)oxiran-2-yl)-1-oxaspiro[2.5]octan-6-yl 3-(2-((1S,4S)-7-azabicyclo[2.2.1]heptan-7-yl)ethyl)azetidine-1-carboxylate], the inhibition in vivo at 0.3 mg/kg was 0.5%.

Regarding `CO[C@@H]1[C@H](OC(=O)N2CC(CCN3CCN(CC(F)F)CC3=O)C2)CC[C@]2(CO2)[C@H]1[C@@]1(C)O[C@@H]1CC=C(C)C` [Example 35, (3R,4S,5S,6R)-5-methoxy-4-((2R,3R)-2-methyl-3-(3-methylbut-2-enyl)oxiran-2-yl)-1-oxaspiro[2.5]octan-6-yl 3-(2-(4-(2,2-difluoroethyl)-2-oxopiperazin-1-yl)ethyl)azetidine-1-carboxylate], the inhibition in vivo at 0.3 mg/kg stood at 21.3%.
